Data taken from patent US8513430B2, “Substituted thiazol-2-ylamine derivatives, pharmaceutical compositions, and methods of use as 11-beta HSD1 modulators” (High Point Pharmaceuticals, LLC, priority 2010, dated 2013).
pIC50: −log10 of the molar value.

Target: T1, 11βHSD1 (Homo sapiens, UniProt P28845)
T1 construct: from tissue
Assay: Human adipocytes cell based assay (cortisone to cortisol, ELISA)
Details: human omental adipocytes, 300 nM cortisone, 24 hours at 37° C.
Procedure: Human Adipocytes Cell Based Assay
Cells were ordered from ZenBio, RTP, NC (www.zen-bio.com (OA-1096-3)) pre-plated (96 well). Cell Media was supplied by ZenBio (Omental Adipocyte Medium #OM-AM).
Test compounds were prepared at 10 concentrations (10 μM-0.1 nM). Dilutions were made up in Cell Media. Cell Media from the plate is aspirated and 97 μL was added to the wells.
The plates were incubated for 15 minutes (37° C.).
3 μL of […] cortisone (Sigma #C2755) (300 nM FAC) was added, for a total well volume of 100 μL.
The plates were incubated for 24 hours (37° C.).
The media was harvested from cells.
The samples were then assayed using Cortisol ELISA Kits (R & D Systems #SKGE008). Samples were diluted by a factor of 5. Specific instructions were included in the kit to quantify presence of cortisol in samples through an ELISA assay.
The plates were read on a Spectramax at 450 nm OD.

T1 sequence (P28845 whole entry): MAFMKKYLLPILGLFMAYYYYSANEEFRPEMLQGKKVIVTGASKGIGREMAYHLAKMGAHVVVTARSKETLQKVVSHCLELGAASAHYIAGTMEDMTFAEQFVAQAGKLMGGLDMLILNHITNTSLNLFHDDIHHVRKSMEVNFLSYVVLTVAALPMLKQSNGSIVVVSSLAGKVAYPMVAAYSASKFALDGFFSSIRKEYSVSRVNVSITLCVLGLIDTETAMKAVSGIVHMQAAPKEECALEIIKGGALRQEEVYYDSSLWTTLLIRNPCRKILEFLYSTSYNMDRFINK

pIC50	SMILES
7.72	O=C(N[C@H]1C2CC3CC1C[C@](O)(C3)C2)c1csc(Nc2ccc(Cl)cn2)n1 [Example 2, 2-(5-Chloro-pyridin-2-ylamino)-thiazole-4-carboxylic acid [(E)-5-hydroxyadamantan-2-yl]-amide]

Target: T1, 11βHSD1
Assay: in vitro 11β-HSD assay (human microsomes, CISBIO cortisol kit)
Format: biochemical
Details: 160 nM cortisone, 200 μM NADPH, 2 h at 37° C., pH 6.0
Procedure: The following assay methods were used to identify and evaluate compounds of Formula (I) that are effective in modulating 11βHSD1.
CISBIO Cortisol kit #62CO2PEB
Assay Buffer: (water based) used for Enzyme, Compounds and Microsomes: 20 mM Tris, 5 mM EDTA, and pH 6.0.
Enzyme Buffer: 333 μM NADPH (FAC 200 μM) and 266 nM Cortisone (FAC 160 nM).
1) Test compounds (10 mM stock in 100% DMSO) were diluted in Assay Buffer (see below) with 1% DMSO FAC and placed into the 96-well plate. Test compounds were typically tested over 10 concentrations (30 μM-0.3 nM).
2) 30 μL Enzyme Buffer, 10 μL Test Compound, 10 μL human microsomes were added to the test compounds and mixed gently by tapping the plate.
3) The plates were incubated for 2 h at 37° C.
4) 25 μL anti Cortisol-K and 25 μL Cortisol d2 were added to the plate and mixed gently by tapping the plate.
5) The plates were incubated at room temperature for 2 h.
6) The plates were read on an Envision model 2120 Perkin-Elmer using emission filters #205 and #217.

EC50 [nM]	SMILES
39	O=C(N[C@H]1C2CC3CC1C[C@](O)(C3)C2)c1csc(NCc2cccnc2)n1 [Example 13, 2-[(Pyridin-3-ylmethyl)-amino]-thiazole-4-carboxylic acid [(E)-5-hydroxy-adamantan-2-yl]-amide]
31	O=C(N[C@H]1C2CC3CC1C[C@](O)(C3)C2)c1cnc(Nc2ccc(Cl)cn2)s1 [Example 17, 2-(5-Chloro-pyridin-2-ylamino)-thiazole-5-carboxylic acid [(E)-5-hydroxy-adamantan-2-yl]-amide]
369	O=C(N[C@H]1C2CC3CC1C[C@](O)(C3)C2)c1csc(NCCc2ccncc2)n1 [Example 16, 2-(2-Pyridin-4-yl-ethylamino)-thiazole-4-carboxylic acid [(E)-5-hydroxy-adamantan-2-yl]-amide]
127	O=C(N[C@H]1C2CC3CC1C[C@](O)(C3)C2)c1csc(NCCc2ccccn2)n1 [Example 7, 2-(2-Pyridin-2-yl-ethylamino)-thiazole-4-carboxylic acid [(E)-5-hydroxy-adamantan-2-yl]-amide]
360	O=C(N[C@H]1C2CC3CC1C[C@](O)(C3)C2)c1csc(NCc2ccco2)n1 [Example 1, 2-[(Furan-2-ylmethyl)-amino]-thiazole-4-carboxylic acid [(E)-5-hydroxy-adamantan-2-yl]-amide]
4000	O=C(N[C@H]1C2CC3CC1C[C@](O)(C3)C2)c1csc(Nc2ccccn2)n1 [Example 5, 2-(Pyridin-2-ylamino)-thiazole-4-carboxylic acid [(E)-5-hydroxy-adamantan-2-yl]-amide]
48	Cc1nc(NCCc2ccccc2)sc1C(=O)N[C@H]1C2CC3CC1C[C@](O)(C3)C2 [Example 18, 4-Methyl-2-phenethylamino-thiazole-5-carboxylic acid [(E)-5-hydroxy-adamantan-2-yl]-amide]
110	O=C(N[C@H]1C2CC3CC1C[C@](O)(C3)C2)c1csc(Nc2ccncc2)n1 [Example 3, 2-(Pyridin-4-ylamino)-thiazole-4-carboxylic acid [(E)-5-hydroxy-adamantan-2-yl]-amide]
31	O=C(N[C@H]1C2CC3CC1C[C@](O)(C3)C2)c1csc(Nc2ccc(Cl)cn2)n1 [Example 2, 2-(5-Chloro-pyridin-2-ylamino)-thiazole-4-carboxylic acid [(E)-5-hydroxyadamantan-2-yl]-amide]
78	O=C(N[C@H]1C2CC3CC1C[C@](O)(C3)C2)c1csc(NCc2ccccc2)n1 [Example 14, 2-Benzylamino-thiazole-4-carboxylic acid [(E)-5-hydroxy-adamantan-2-yl]-amide]
165	O=C(N[C@H]1C2CC3CC1C[C@](O)(C3)C2)c1csc(NCCc2cccnc2)n1 [Example 15, 2-(2-Pyridin-3-yl-ethylamino)-thiazole-4-carboxylic acid [(E)-5-hydroxy-adamantan-2-yl]-amide]
11	O=C(N[C@H]1C2CC3CC1C[C@](O)(C3)C2)c1csc(NCCc2ccccc2)n1 [Example 6, 2-(2-Phenyl-ethylamino)-thiazole-4-carboxylic acid [(E)-5-hydroxy-adamantan-2-yl]-amide]
13	O=C(N[C@H]1C2CC3CC1C[C@](O)(C3)C2)c1csc(Nc2ccc(C(F)(F)F)cc2)n1 [Example 8, 2-(4-Trifluoromethyl-phenylamino)-thiazole-4-carboxylic acid [(E)-5-hydroxy-adamantan-2-yl]-amide]
2	COc1ccc(Nc2nc(C(=O)N[C@H]3C4CC5CC3C[C@](O)(C5)C4)cs2)cc1 [Example 9, 2-(4-Methoxy-phenylamino)-thiazole-4-carboxylic acid [(E)-5-hydroxy-adamantan-2-yl]-amide]
2.7	O=C(N[C@H]1C2CC3CC1C[C@](O)(C3)C2)c1csc(Nc2ccc(F)cc2)n1 [Example 11, 2-(4-Fluoro-phenylamino)-thiazole-4-carboxylic acid [(E)-5-hydroxy-adamantan-2-yl]-amide]
26	O=C(N[C@H]1C2CC3CC1C[C@](O)(C3)C2)c1csc(Nc2cccnc2)n1 [Example 4, 2-(Pyridin-3-ylamino)-thiazole-4-carboxylic acid [(E)-5-hydroxy-adamantan-2-yl]-amide]
8.7	O=C(N[C@H]1C2CC3CC1C[C@](O)(C3)C2)c1csc(Nc2ccc(Cl)cc2)n1 [Example 10, 2-(4-Chloro-phenylamino)-thiazole-4-carboxylic acid [(E)-5-hydroxy-adamantan-2-yl]-amide]
112	O=C(N[C@H]1C2CC3CC1C[C@](O)(C3)C2)c1csc(Nc2ccc(Cl)c(Cl)c2)n1 [Example 12, 2-(3,4-Dichloro-phenylamino)-thiazole-4-carboxylic acid [(E)-5-hydroxy-adamantan-2-yl]-amide]
